Measurements as given in patent US7091025B2, “Malathion carboxylesterase” (priority 1995, dated 2006).
Read-outs that look alike come from different tables or passages of the source.

Tests used:
adult female L. cuprina = format: in vivo; settings: for RF (Dz/para R): ratio of the LD50 of Llandillo 103 with the LD50 of LS2 / RF (Mal R): ratio of the LD50 of Woodside 5.2 with the LD50 of LS2: L. cuprina, NS = not significantly different from unity; for LD50 LS2 (OP Susceptible), with 95% confidence limits: strain LS2, topical in dioctylphthalate; for LD50 LS2 (OP Susceptible), with 95% confidence limits / LD50 Llandillo 103 (Dz/para Resistant), with 95% confidence limits / LD50 Woodside 5.2 (Mal Resistant), with 95% confidence limits: mortality at 24 hours; for LD50 Llandillo 103 (Dz/para Resistant), with 95% confidence limits: strain Llandillo 103, topical; for LD50 Woodside 5.2 (Mal Resistant), with 95% confidence limits: strain Woodside 5.2, topical
From the text: (§1) The following organophosphorus compounds were used: diazinon (O,O-diethyl O-2-isopropyl-6-methylpyrimidin-4-yl phosphorothioate, 91%, Mallinckrodt), parathion-methyl (O,O-dimethyl O-4-nitrophenyl phosphorothioate, 97.0%, Bayer), parathion (O,O-diethyl O-4-nitrophenyl phosphorothioate, 99%, Pestanal grade, Riedel-de-Haën), fenthion (O,O-dimethyl O-[3-methyl-4-(methylthio)phenyl]phosphorothioate, 98.8%, Bayer), fenthion-ethyl (O,O-diethyl O-[3-methyl-4-(methylthio)phenyl] phosphorothioate, a gift from Dr. G. Levot), dichlorvos (2,2-dichlorovinyl dimethyl phosphate, 99%, Chem Service), diethyl-dichlorvos (2,2-dichlorovinyl diethyl phosphate, a gift from Dr. J. Desmarchelier), di-isopropyl-dichlorvos (2,2-dichlorovinyl di-isopropyl phosphate, a gift from Dr. J. Desmarchelier), malathion (S-1,2-bis(ethoxycarbonyl)ethyl O,O-dimethyl phosphorodithioate, technical grade, Nufarm), isopropyl malathion (S-1,2-bis(ethoxycarbonyl)ethyl O,O-di-isopropyl phosphorodithioate, a gift from Dr. J. Desmarchelier).
(§2) The toxicity of OPs in adult female L. cuprina was determined 3 or 4 days post-eclosion by application of OPs to the scutellum in 0.7 μl dioctylphthalate (Busvine, J. R., Bell, J. D. and Guneidy, A. M., Bulletin of Entomological Research 54: 589, 1963;; Townsend, M. G. and Busvine, J. R., Entomology Experimental and Applied 12: 243, 1969). Each OP was applied to at least 20 flies at each of at least 5 different concentrations, spanning the dose causing 50% mortality (LD50). Control groups were treated with solvent but no OP. Mortality was determined 24 hours later. Data were fitted to the probit curve using the Probit Or LOgit (POLO-PC) computer program (LeOra Software, 1987).

[1] = test system: adult L. cuprina, Llandillo 103 strain (Dz/para Resistant); test: toxicity of OPs in adult female L. cuprina, Llandillo 103 strain; format: in vivo, Lucilia cuprina
From the text: as §1, §2
(§3) LD50s of 10 OPs were determined for the Woodside 5.2 strain (homozygous for a malathion resistance allele of LcαE7) and the Llandillo 103 strain (homozygous for a parathion/diazinon resistance allele of LcαE7). LD50s were also determined for the OP susceptible LS2 strain in order to calculate resistance factors (Table 8).

[2] = test system: whole fly homogenates of L. cuprina strains; test: Chlorfenvinphos hydrolysis by whole fly homogenates; format: biochemical
Method: Enzyme samples were diluted in 0.1M imidazole-HCl buffer pH 7.0 (“imidazole buffer”) to a final volume of 50 μl. Reactions were started by the addition 0.5 μl of (^14C-ethyl)-chlorfenvinphos (CVP, 306.5 MBq/mmole, Internationale Isotope Munchen) from a 7.5 mM stock solution in ethanol. The reaction was incubated at 30° C. and stopped by the addition of 300 μl dichloromethane and 150 μl of water followed by vigorous vortex mixing. The reactions were centrifuged to separate phases and 150 μl of the upper, aqueous phase was taken for scintillation counting to determine the amount of ^14C-diethylphosphate produced by hydrolysis of CVP. Incubations with boiled enzyme were also performed to control for non-enzymic hydrolysis of CVP.
Whole fly homogenates of malathion resistant (strains RM-8, 60NE 1.1, 4.2, Beverly 6.2, Hampton Hill 6.1, Hampton Hill 6.2, Woodside 5.2, Rop Rmal 1, M22.2 6.3, M27.1 4.1), diazinon resistant (Gunning 107, Inverell 22, Q4, RM2.6, Llandillo 103, Sunbury 5.2) and susceptible (LBB 101, Llandillo 104, LS2) strains of L. cuprina were tested for esterase-mediated hydrolysis of CVP, a general OP (ie not a malathion-type OP). All 10 malathion resistant strains had greater CVP hydrolytic activities (1.5–3.0 pmol/min/mg) than the 3 susceptible strains (0.5–1.0 pmol/min/mg, but less activity than the 6 diazinon resistant strains (8.2–30.0 pmol/min/mg).

M. domestica = settings: cited from earlier work; for Resistance factor of M. domestica (in parentheses), Dz/para resistance type / Resistance factor of M. domestica (in parentheses), malathion resistance type: Bell and Busvine 1967, Townsend and Busvine 1969
[3] = test system: adult L. cuprina, Woodside 5.2 strain (Mal Resistant); format: in vivo, Lucilia cuprina
From the text: as §1, §2, §3

CC(=O)Oc1cccc2ccccc12 = test: α-naphthyl acetate hydrolysis, expressed malathion susceptible LcαE7 product; format: biochemical, Lucilia cuprina; settings: other: α-NA 6-200 μM, 25° C., pH 8.0
Method: (§4) The in vitro expression of the OP susceptible allele of LcαE7 (clone Lc743) is described in patent application PCT/AU 95/00016 (“Enzyme based bioremediation”).
(§5) The initial rates of reactions between cell extracts containing the expressed products of the malathion resistant and susceptible LcαE7 alleles and α-naphthyl acetate (α-NA) were determined at 25° C. using a recording spectrophotometer and the method of Mastrapaolo and Yourno (Analytical Biochemistry 115: 188, 1981). 6–200 μM α-NA dissolved in 10 μl of 2-methoxyethanol was added to 0.1 M Tris-HCl pH 8.0 (980 μl) in a quartz cuvette. α-Naphthyl acetate is slowly hydrolysed in water so a background rate was recorded before starting the enzymic reaction by the addition of 10 μl of diluted cell extract. Control reactions were performed with extracts of both uninfected cells and Bacpac 6 infected cells.
(§6) Km and Vmax were calculated for both enzymes. Kcat was then calculated from the Vmax and the molarity of the LcαE7 products in their respective cell extracts (determined above).

CCCC(=O)Oc1cccc2ccccc12 = test: α-naphthyl butyrate hydrolysis, expressed malathion susceptible LcαE7 product; format: biochemical, Lucilia cuprina; settings: other: α-NB 6-200 μM, 25° C., pH 8.0
Method: as §4, §5
As described above for α-NA hydrolysis except that 6–200 μM α-naphthyl butyrate (α-NB) was used instead of α-NA.
as §6

Row | Compound | RF (Dz/para R): ratio of the LD50 of Llandillo 103 with the LD50 of LS2 (adult female L. cuprina) | RF (Mal R): ratio of the LD50 of Woodside 5.2 with the LD50 of LS2 (adult female L. cuprina) | LD50 LS2 (OP Susceptible), with 95% confidence limits (adult female L. cuprina) | LD50 Llandillo 103 (Dz/para Resistant), with 95% confidence limits (adult female L. cuprina) | LD50 Woodside 5.2 (Mal Resistant), with 95% confidence limits (adult female L. cuprina) | Resistance factor of M. domestica (in parentheses), Dz/para resistance type (M. domestica) | Resistance factor of M. domestica (in parentheses), malathion resistance type (M. domestica) | other results
1 | CCOP(=O)(OC=C(Cl)Cl)OCC [Ethyl Dichlorvos, 2,2-dichlorovinyl diethyl phosphate] | 7 | 3 | 360 (300–420), ng/fly | 2370 (2320–2410), ng/fly | 1100 (700–1500) ng/fly |  |  | resistance factor towards diethyl OP vs its dimethyl analogue [1]: about two-fold greater resistance factors
2 | CCOP(=O)(OCC)O/C(=C\Cl)c1ccc(Cl)cc1Cl [CVP, chlorfenvinphos] |  |  |  |  |  |  |  | CVP hydrolytic activity ([2]; whole fly homogenates of 3 susceptible strains): 0.5 to 1.0 pmol/min/mg; CVP hydrolytic activity ([2]; whole fly homogenates of 6 diazinon resistant strains): 8.2 to 30.0 pmol/min/mg; CVP hydrolytic activity ([2]; whole fly homogenates of 10 malathion resistant strains): 1.5 to 3.0 pmol/min/mg
3 | CCOP(=S)(OCC)Oc1cc(C)nc(C(C)C)n1 [Diazinon, O,O-diethyl O-2-isopropyl-6-methylpyrimidin-4-yl phosphorothioate] | 10 | 5 | 57 (40–79), ng/fly | 550 (490–630), ng/fly | 270 (240–300), ng/fly | 20 | 2 | 
4 | CCOC(=O)CC(SP(=S)(OC)OC)C(=O)OCC (stereo not drawn) [Malathion, S-1,2-bis(ethoxycarbonyl)ethyl O,O-dimethyl phosphorodithioate] |  | > 130 | 550 (480–610), ng/fly | 490 (360–600) ng/fly | 4 ng/fly | 2 | 157 | fold greater doses survived by flies with malathion resistance alleles of αE7 (adult female L. cuprina; in vivo): more than 100 fold; resistance to malathion of malathion resistant M. domestica strains (M. domestica; literature): > 100 fold
5 | CCOP(=S)(OCC)Oc1ccc(SC)c(C)c1 [Fenthion-ethyl, O,O-diethyl O-[3-methyl-4-(methylthio)phenyl] phosphorothioate] | 2 | 2 | 330 (290–370) ng/fly | 690 (570–830) ng/fly | 730 (660–870) ng/fly |  |  | resistance factor towards diethyl OP vs its dimethyl analogue [1]: no significant difference
6 | COP(=S)(OC)Oc1ccc([N+](=O)[O-])cc1 [Parathion-methyl, O,O-dimethyl O-4-nitrophenyl phosphorothioate] | 12 | 27 | 16 (11–20), ng/fly | 185 (141–244), ng/fly | 430 (390–490), ng/fly | 9 | 10 | resistance factor towards dimethyl OP vs its diethyl analogue ([3]; Woodside 5.2): about two- to five-fold greater resistance factors
7 | Lucilia cuprina LcαE7 (esterase E3) gene product, malathion susceptible allele (strain LS2; clone Lc743), Trp at position 251 (Lucilia cuprina) |  |  |  |  |  |  |  | Km (CC(=O)Oc1cccc2ccccc12): 70 ± 5 µM; kcat (CC(=O)Oc1cccc2ccccc12): 183 ± 5 s⁻¹; Km (CCCC(=O)Oc1cccc2ccccc12): 20 ± 5 µM; kcat (CCCC(=O)Oc1cccc2ccccc12): 300 ± 33.3 s⁻¹
8 | CCOP(=S)(OCC)Oc1ccc([N+](=O)[O-])cc1 [Parathion, O,O-diethyl O-4-nitrophenyl phosphorothioate] | 20 | 6 | 52 (48–55), ng/fly | 1050 (890–1280), ng/fly | 290 (270–310), ng/fly | 35 | 3 | resistance factor towards diethyl OP vs its dimethyl analogue [1]: about two-fold greater resistance factors
9 | CC(C)OP(=O)(OC=C(Cl)Cl)OC(C)C [Isopropyl Dichlorvos, 2,2-dichlorovinyl di-isopropyl phosphate] |  | 3 | 3500 (2200–4800), ng/fly | 4600 (3400–5900) ng/fly | 10200 (8800–12000) ng/fly |  |  | 
10 | CCOC(=O)CC(SP(=S)(OC(C)C)OC(C)C)C(=O)OCC (stereo not drawn) [Isopropyl Malathion, S-1,2-bis(ethoxycarbonyl)ethyl O,O-di-isopropyl phosphorodithioate] |  | 1.8 | 3600 (2700–4900), ng/fly | 4900 (3700–6200), ng/fly | 6400 (5900–7100), ng/fly |  | 4 | 
11 | COP(=O)(OC)OC=C(Cl)Cl [Dichlorvos, 2,2-dichlorovinyl dimethyl phosphate] | 4 | 7 | 41 (35–51), ng/fly | 150 (95–190), ng/fly | 270 (210–340) ng/fly | 3 | 6 | resistance factor towards dimethyl OP vs its diethyl analogue ([3]; Woodside 5.2): about two- to five-fold greater resistance factors
12 | COP(=S)(OC)Oc1ccc(SC)c(C)c1 [Fenthion, O,O-dimethyl O-[3-methyl-4-(methylthio)phenyl]phosphorothioate] | 3 (3) | 5 | 61 (42–87), ng/fly | 210 (180–240) ng/fly | 320 (210–490) ng/fly | 3 (3) | 7 | resistance factor towards dimethyl OP vs its diethyl analogue ([3]; in vivo): about two- to five-fold greater resistance factors
